“Also recorded” adds a separate entry of the source.

These results are taken from US5182290A (Neurogen Corporation, priority 1991, dated 1993).

The target in one assay is GABAa receptor. The assay is described as follows: Inhibition of 3H-RO15-1788 (3H-Flumazenil) binding to rat cortical tissue (GABAa receptor assay). As to the method: Assays are carried out as described in Thomas and Tallman (J. Bio. Chem. 156: 9838-9842, J. Neurosci. 3:433-440, 1983). Rat cortical tissue is dissected and homogenized in 25 volumes (w/v) of 0.05M Tris HCl buffer (pH 7.4 at 4° C.). The tissue homogenate is centrifuged in the cold (4° C.) at 20,000×g for 20 minutes. The supernatant is decanted and the pellet is rehomogenized in the same volume of buffer and again centrifuged at 20,000× g. The supernatant is decanted and the pellet is frozen at -20° C. overnight. The pellet is then thawed and rehomogenized in 25 volume (original wt/vol) of buffer and the procedure is carried out twice. The pellet is finally resuspended in 50 volumes (w/vol of 0.05M Tris HCl buffer (pH 7.4 at […]).
Incubations contain […] of radioligand 0.5 nM (^3 H-RO15-1788[^3 H-Flumazenil] specific activity 80 Ci/mmol), drug or blocker and buffer to a total volume of […]. Incubations are carried for 30 min at 4° C. then are rapidly filtered through GFB filters to separate free and bound ligand. Filters are washed twice with fresh 0.05M Tris HCl buffer (pH 7.4 at 4° C.) and counted in a liquid scintillation counter. 1.0 mM diazepam is added to some tubes to determine nonspecific binding. Data are collected in triplicate determinations, averaged and % inhibition of total specific binding is calculated. Total Specific Binding=Total-Nonspecific. In some cases, the amounts of unlabeled drugs is varied and total displacement curves of binding are carried out. Data are converted to a form for the calculation of IC50 and Hill Coefficient (nH).

In assay [1] the test system is benzodiazepine binding site. To be noted: result in words; Tallman et al., 1978; cited from earlier work.
Where [2] appears, read: 3H-RO15-1788 0.5 nM, rat cortical tissue, 30 min at 4° C.

In general, IC50 refers to the concentration that gives 50% inhibition. Read a high IC50 as lower potency. Consider `Cn1c(=O)c2nc(-c3ccccc3)oc2c2ccccc21` [5-methyl-2-phenyl-oxazolo[4,5-c]quinolin-4(5H)-one], for which the IC50 on GABAa receptor (prior art compound, assay described above, unit inferred) was roughly 50000 nM. In addition, the “activity in the assay” value in the assay on GABAa receptor (prior art compound, result in words) is “no activity; also recorded: inactive”. On to `CN1CCc2cc3c(cc2[C@H]1[C@@H]1OC(=O)c2c1ccc1c2OCO1)OCO3` [(+) bicuculline], for which the “Blockade of enhancement of benzodiazepine binding by GABA agonists” value in assay [1] is “blocked”. Take `CN1CCc2cc3c(cc2[C@@H]1[C@H]1OC(=O)c2c1ccc1c2OCO1)OCO3` [(-) bicuculline]: the “Blockade of enhancement of benzodiazepine binding by GABA agonists” value in assay [1] was “much less active”. For the compound `COc1cccc(-c2nc3c(=O)[nH]c4ccccc4c3o2)c1` [Compound 1, 2-(3-Methoxyphenyl)-oxazolo[4,5-c]quinolin-4(5H)-one], the IC50 at GABAa receptor (setting [2]) was determined as 600 nM. This counts as sub-micromolar.

In turn, `O=c1[nH]c2ccccc2c2oc(-c3ccccc3)nc12` [Compound 2, 2-Phenyl-oxazolo[4,5-c]quinolin-4(5H)-one] had an IC50 on GABAa receptor (setting [2]) of 95 nM. Still for that read-out and setting: as for `COc1ccc(-c2nc3c(=O)[nH]c4ccccc4c3o2)cc1` [Compound 4, 2-(4-Methoxyphenyl)-oxazolo[4,5-c]quinolin-4(5H)-one], the figure is 125 nM.
